Data reported in paper PMC5218480 (PLoS ONE, 2017).

Tested on: MV-4-11 cells
Test: Gene expression microarray analysis (Affymetrix PrimeView) and GSEA
Format: cell-based, human
Set-up: RFU PODN (11730768_x_at) / Fold change /veh PODN (11730768_x_at) / RFU LINC00158 (11744669_a_at) / Fold change /veh LINC00158 (11744669_a_at) / RFU DUSP10 (11751237_a_at) / Fold change /veh DUSP10 (11751237_a_at) / RFU ID3 (11757404_x_at) / Fold change /veh ID3 (11757404_x_at) / RFU PLEKHG5 (11737974_s_at) / Fold change /veh PLEKHG5 (11737974_s_at) / RFU LRRC4B (11730491_at) / Fold change /veh LRRC4B (11730491_at) / RFU GIMAP4 (11747438_a_at) / Fold change /veh GIMAP4 (11747438_a_at) / RFU KRT8 (11758183_x_at) / Fold change /veh KRT8 (11758183_x_at) / RFU CNN1 (11734310_a_at) / Fold change /veh CNN1 (11734310_a_at) / RFU VPS37D (11726825_at) / Fold change /veh VPS37D (11726825_at) / RFU C10orf10 (11716522_x_at) / Fold change /veh C10orf10 (11716522_x_at) / RFU KIR2DL2 /// KIR2DL4 /// KIR2DL5A /// KIR2DL5B /// KIR2DS1 /// KIR2DS2 /// KIR2DS3 /// KIR2DS4 /// KIR3DL3 /// KIR3DL3 /// KIR3DS1 (11738374_at) / Fold change /veh KIR2DL2 /// KIR2DL4 /// KIR2DL5A /// KIR2DL5B /// KIR2DS1 /// KIR2DS2 /// KIR2DS3 /// KIR2DS4 /// KIR3DL3 /// KIR3DL3 /// KIR3DS1 (11738374_at) / RFU C1QL1 (11718748_at) / Fold change /veh C1QL1 (11718748_at) / RFU TMPRSS4 (11747572_a_at) / Fold change /veh TMPRSS4 (11747572_a_at) / RFU HAMP (11756126_x_at) / Fold change /veh HAMP (11756126_x_at) / RFU RNFT2 (11725882_a_at) / Fold change /veh RNFT2 (11725882_a_at) / RFU NR4A2 (11747474_a_at) / Fold change /veh NR4A2 (11747474_a_at) / RFU ABCC12 (11746883_a_at) / Fold change /veh ABCC12 (11746883_a_at) / RFU TMEM136 (11760407_x_at) / Fold change /veh TMEM136 (11760407_x_at) / RFU CLDN22 /// WWC2 (11732394_at) / Fold change /veh CLDN22 /// WWC2 (11732394_at) / RFU HLA-DPB1 (11760878_x_at) / Fold change /veh HLA-DPB1 (11760878_x_at) / RFU SPINT1 (11716480_a_at) / Fold change /veh SPINT1 (11716480_a_at) / RFU GAP43 (11754022_s_at) / Fold change /veh GAP43 (11754022_s_at) / RFU A4GNT (11735810_at) / Fold change /veh A4GNT (11735810_at) / RFU PRB3 (11715151_x_at) / Fold change /veh PRB3 (11715151_x_at) / RFU TUBB4B (11761932_at) / Fold change /veh TUBB4B (11761932_at) / RFU CAPN14 (11732068_a_at) / Fold change /veh CAPN14 (11732068_a_at) / RFU TMCC2 (11721928_a_at) / Fold change /veh TMCC2 (11721928_a_at) / RFU IRGQ (11745062_a_at) / Fold change /veh IRGQ (11745062_a_at) / RFU FAM174B (11720279_a_at) / Fold change /veh FAM174B (11720279_a_at) / RFU TMPRSS4 (11748680_a_at) / Fold change /veh TMPRSS4 (11748680_a_at) / RFU FAM212B (11763350_a_at) / Fold change /veh FAM212B (11763350_a_at) / RFU PLEKHG5 (11743358_a_at) / Fold change /veh PLEKHG5 (11743358_a_at) / RFU ZSCAN30 (11745921_a_at) / Fold change /veh ZSCAN30 (11745921_a_at) / RFU CMKLR1 (11741424_a_at) / Fold change /veh CMKLR1 (11741424_a_at) / RFU LOC101060620 /// MAPK8IP1 (11723275_at) / Fold change /veh LOC101060620 /// MAPK8IP1 (11723275_at) / RFU SPTSSB (11747773_x_at) / Fold change /veh SPTSSB (11747773_x_at) / RFU PRSS12 (11739890_at) / Fold change /veh PRSS12 (11739890_at) / RFU BIN1 (11741810_x_at) / Fold change /veh BIN1 (11741810_x_at) / RFU WNT11 (11732464_a_at) / Fold change /veh WNT11 (11732464_a_at) / RFU C10orf10 (11716521_a_at) / Fold change /veh C10orf10 (11716521_a_at) / RFU C5orf56 (11738089_at) / Fold change /veh C5orf56 (11738089_at) / RFU CYB561 (11721691_x_at) / Fold change /veh CYB561 (11721691_x_at) / RFU ANKRD19P (11752326_a_at) / Fold change /veh ANKRD19P (11752326_a_at) / RFU OR2T12 /// OR2T33 /// OR2T8 (11738714_s_at) / Fold change /veh OR2T12 /// OR2T33 /// OR2T8 (11738714_s_at) / RFU VCAN (11748164_a_at) / Fold change /veh VCAN (11748164_a_at) / RFU JSRP1 (11732532_at) / Fold change /veh JSRP1 (11732532_at) / RFU KRTAP10-11 (11738290_x_at) / Fold change /veh KRTAP10-11 (11738290_x_at) / RFU MYO3A (11730013_a_at) / Fold change /veh MYO3A (11730013_a_at) / RFU EBF3 (11725865_a_at) / Fold change /veh EBF3 (11725865_a_at) / RFU CAMK2N1 (11719241_x_at) / Fold change /veh CAMK2N1 (11719241_x_at) / RFU C5orf56 (11738088_a_at) / Fold change /veh C5orf56 (11738088_a_at) / RFU OLFML3 (11715873_a_at) / Fold change /veh OLFML3 (11715873_a_at) / RFU LOC100653217 /// NTM (11731650_a_at) / Fold change /veh LOC100653217 /// NTM (11731650_a_at) / RFU MAPK11 (11762145_a_at) / Fold change /veh MAPK11 (11762145_a_at) / RFU FIZ1 (11724087_x_at) / Fold change /veh FIZ1 (11724087_x_at) / RFU OASL (11726364_x_at) / Fold change /veh OASL (11726364_x_at) / RFU SOX15 (11748057_x_at) / Fold change /veh SOX15 (11748057_x_at) / RFU CD79A (11719716_a_at) / Fold change /veh CD79A (11719716_a_at) / RFU HIST1H1D (11736915_at) / Fold change /veh HIST1H1D (11736915_at) / RFU CASKIN2 (11723855_a_at) / Fold change /veh CASKIN2 (11723855_a_at) / RFU LOC730098 (11760151_x_at) / Fold change /veh LOC730098 (11760151_x_at) / RFU OR4N2 (11742367_at) / Fold change /veh OR4N2 (11742367_at) / RFU PRRT2 (11749266_a_at) / Fold change /veh PRRT2 (11749266_a_at) / RFU SNX32 (11753110_a_at) / Fold change /veh SNX32 (11753110_a_at) / RFU CDHR5 (11726645_a_at) / Fold change /veh CDHR5 (11726645_a_at) / RFU RCAN1 (11760418_a_at) / Fold change /veh RCAN1 (11760418_a_at) / RFU FAM167A (11723789_a_at) / Fold change /veh FAM167A (11723789_a_at) / RFU FAM26E (11764081_at) / Fold change /veh FAM26E (11764081_at) / RFU ISYNA1 (11749810_s_at) / Fold change /veh ISYNA1 (11749810_s_at) / RFU ACY1 (11761880_at) / Fold change /veh ACY1 (11761880_at) / RFU 11764098_at / Fold change /veh 11764098_at / RFU SAMD14 (11745864_x_at) / Fold change /veh SAMD14 (11745864_x_at) / RFU NPB (11741838_a_at) / Fold change /veh NPB (11741838_a_at) / RFU TMPRSS6 (11731388_a_at) / Fold change /veh TMPRSS6 (11731388_a_at) / RFU KRTAP10-2 (11738614_at) / Fold change /veh KRTAP10-2 (11738614_at) / RFU ARHGAP8 /// PRR5-ARHGAP8 (11727945_x_at) / Fold change /veh ARHGAP8 /// PRR5-ARHGAP8 (11727945_x_at) / RFU KRTAP5-7 /// NADSYN1 (11734609_at) / Fold change /veh KRTAP5-7 /// NADSYN1 (11734609_at) / RFU RASL12 (11751679_a_at) / Fold change /veh RASL12 (11751679_a_at) / RFU CDKN2B (11736163_a_at) / Fold change /veh CDKN2B (11736163_a_at) / RFU PRF1 (11729649_at) / Fold change /veh PRF1 (11729649_at) / RFU, ZNF638 /// ZNF638-IT1 / Fold change vs veh, ZNF638 /// ZNF638-IT1 / RFU, PANK3 / Fold change vs veh, PANK3 / RFU, SH3YL1 / Fold change vs veh, SH3YL1 / RFU, ZEB2 / Fold change vs veh, ZEB2 / RFU, NRIP1 / Fold change vs veh, NRIP1 / RFU, PTTG1IP / Fold change vs veh, PTTG1IP / RFU, CAPN2 / Fold change vs veh, CAPN2 / RFU, MED14 / Fold change vs veh, MED14 / RFU, SNORA58 / Fold change vs veh, SNORA58 / RFU, C1orf63 / Fold change vs veh, C1orf63 / RFU, LRRFIP1 / Fold change vs veh, LRRFIP1 / RFU, NDUFAF7 / Fold change vs veh, NDUFAF7 / RFU, SLC12A2 / Fold change vs veh, SLC12A2 / RFU, IBTK / Fold change vs veh, IBTK / RFU, ESF1 / Fold change vs veh, ESF1 / Fold change vs veh, TMEM50B / RFU, TAOK1 / Fold change vs veh, TAOK1 / RFU, ACBD3 / Fold change vs veh, ACBD3 / RFU, TMA16 / Fold change vs veh, TMA16 / RFU, RWDD3 / Fold change vs veh, RWDD3 / RFU, BCAT1 / Fold change vs veh, BCAT1 / RFU, EDEM3 / Fold change vs veh, EDEM3 / RFU, TMEM33 / Fold change vs veh, TMEM33 / RFU, WDR75 / Fold change vs veh, WDR75 / RFU, AHCTF1 / Fold change vs veh, AHCTF1 / RFU, TFRC / Fold change vs veh, TFRC / RFU, ZDHHC17 / Fold change vs veh, ZDHHC17 / RFU, NOM1 / Fold change vs veh, NOM1 / RFU, ARL8B / Fold change vs veh, ARL8B / RFU, ZBTB11 / Fold change vs veh, ZBTB11 / RFU, TAMM41 / Fold change vs veh, TAMM41 / RFU, KIAA1704 /// LOC100996395 / Fold change vs veh, KIAA1704 /// LOC100996395 / RFU, ING1 / Fold change vs veh, ING1 / RFU, TRMT61B / Fold change vs veh, TRMT61B / RFU, FUBP3 / Fold change vs veh, FUBP3 / RFU, TP53 / Fold change vs veh, TP53 / RFU, TNKS2 / Fold change vs veh, TNKS2 / RFU, ZFP14 / Fold change vs veh, ZFP14 / RFU, ACTR2 / Fold change vs veh, ACTR2 / RFU, PPP3R1 / Fold change vs veh, PPP3R1 / RFU, PIK3R1 / Fold change vs veh, PIK3R1 / RFU, HNRNPA1 / Fold change vs veh, HNRNPA1 / RFU, RNF170 / Fold change vs veh, RNF170 / RFU, ZNF28 / Fold change vs veh, ZNF28 / RFU, RNGTT / Fold change vs veh, RNGTT / RFU, OGT / Fold change vs veh, OGT / RFU, BRD1 / Fold change vs veh, BRD1 / RFU, MARS / Fold change vs veh, MARS / RFU, ZNF655 / Fold change vs veh, ZNF655 / RFU, FAHD1 / Fold change vs veh, FAHD1 / RFU, BDP1 / Fold change vs veh, BDP1 / RFU, LRRCC1 / Fold change vs veh, LRRCC1 / RFU, ARID1A / Fold change vs veh, ARID1A / RFU, ZNF146 / Fold change vs veh, ZNF146 / RFU, ZNF330 / Fold change vs veh, ZNF330 / RFU, GPN3 / Fold change vs veh, GPN3 / RFU, C9orf123 / Fold change vs veh, C9orf123 / RFU, N4BP2L2 / Fold change vs veh, N4BP2L2 / RFU, ARFIP1 / Fold change vs veh, ARFIP1 / RFU, FAM179B / Fold change vs veh, FAM179B / RFU, BCL10 / Fold change vs veh, BCL10 / RFU, UHRF1BP1L / Fold change vs veh, UHRF1BP1L / RFU, BET1 / Fold change vs veh, BET1 / RFU, CNOT2 / Fold change vs veh, CNOT2 / RFU, ZNF268 / Fold change vs veh, ZNF268 / Fold change vs veh, ZNF507 / RFU, DGCR2 / Fold change vs veh, DGCR2 / RFU, WDSUB1 / Fold change vs veh, WDSUB1 / Fold change vs veh, HSP90B1 /// MIR3652 / RFU, ADSS / Fold change vs veh, ADSS / RFU, GK / Fold change vs veh, GK / RFU, ZNF148 / Fold change vs veh, ZNF148 / RFU, TAF9 / Fold change vs veh, TAF9 / RFU, SLC1A5 / Fold change vs veh, SLC1A5 / RFU, SLMO2 / Fold change vs veh, SLMO2 / RFU, ABCC4 / Fold change vs veh, ABCC4 / RFU, LOC101060439 /// RAP1B / Fold change vs veh, LOC101060439 /// RAP1B / RFU, RFX7 / Fold change vs veh, RFX7 / RFU, GTPBP10 / Fold change vs veh, GTPBP10 / RFU, CNEP1R1 / Fold change vs veh, CNEP1R1 / RFU, BIVM-ERCC5 /// ERCC5 / Fold change vs veh, BIVM-ERCC5 /// ERCC5 / RFU, ILF3 / Fold change vs veh, ILF3 / RFU 11762660_at / Fold change /veh 11762660_at / RFU VCAN (11757783_s_at) / Fold change /veh VCAN (11757783_s_at) / RFU DDX43 (11728927_at) / Fold change /veh DDX43 (11728927_at) / RFU KRT8 (11758188_x_at) / Fold change /veh KRT8 (11758188_x_at) / RFU NKD1 (11759106_at) / Fold change /veh NKD1 (11759106_at) / RFU SRD5A1 (11742802_a_at) / Fold change /veh SRD5A1 (11742802_a_at) / RFU TPSAB1 /// TPSB2 (11721975_s_at) / Fold change /veh TPSAB1 /// TPSB2 (11721975_s_at) / RFU GSTM3 (11746129_a_at) / Fold change /veh GSTM3 (11746129_a_at) / RFU IL23R (11737362_x_at) / Fold change /veh IL23R (11737362_x_at) / RFU TMEM51 (11727254_a_at) / Fold change /veh TMEM51 (11727254_a_at) / RFU PIWIL2 (11732686_x_at) / Fold change /veh PIWIL2 (11732686_x_at) / RFU ORM1 (11744905_x_at) / Fold change /veh ORM1 (11744905_x_at) / RFU CCDC152 (11743942_at) / Fold change /veh CCDC152 (11743942_at) / RFU ECM1 (11717891_a_at) / Fold change /veh ECM1 (11717891_a_at) / RFU IL23R (11748794_a_at) / Fold change /veh IL23R (11748794_a_at) / RFU TNFAIP8L3 (11732012_x_at) / Fold change /veh TNFAIP8L3 (11732012_x_at) / RFU MBOAT4 (11741988_at) / Fold change /veh MBOAT4 (11741988_at) / RFU 11764193_at / Fold change /veh 11764193_at / RFU TMEM53 (11763286_at) / Fold change /veh TMEM53 (11763286_at) / RFU MAGEB2 (11727129_at) / Fold change /veh MAGEB2 (11727129_at) / RFU TMEM200A (11744735_a_at) / Fold change /veh TMEM200A (11744735_a_at) / RFU CCDC152 (11751479_a_at) / Fold change /veh CCDC152 (11751479_a_at) / RFU FAM211A (11726209_a_at) / Fold change /veh FAM211A (11726209_a_at) / RFU RGS16 (11746705_a_at) / Fold change /veh RGS16 (11746705_a_at) / RFU VCAN (11755009_s_at) / Fold change /veh VCAN (11755009_s_at) / RFU RHOB (11743442_s_at) / Fold change /veh RHOB (11743442_s_at) / RFU RGS16 (11720943_a_at) / Fold change /veh RGS16 (11720943_a_at) / RFU RGS16 (11720944_at) / Fold change /veh RGS16 (11720944_at) / RFU, VPS4B / Fold change vs veh, VPS4B / RFU, CREB1 / Fold change vs veh, CREB1 / RFU, DNAJC13 / Fold change vs veh, DNAJC13 / RFU, GNAQ / Fold change vs veh, GNAQ / RFU, CDK5R1 / Fold change vs veh, CDK5R1 / RFU, ZRANB3 / Fold change vs veh, ZRANB3 / RFU, CUL4A / Fold change vs veh, CUL4A / RFU, CCNY / Fold change vs veh, CCNY / RFU, UFL1 / Fold change vs veh, UFL1 / RFU, COG3 / Fold change vs veh, COG3 / RFU, DIAPH2 / Fold change vs veh, DIAPH2 / RFU, SKA2 / Fold change vs veh, SKA2 / RFU, AFF3 / Fold change vs veh, AFF3 / RFU, LMF1 / Fold change vs veh, LMF1 / RFU, IPO11 / Fold change vs veh, IPO11 / RFU, DFFB / Fold change vs veh, DFFB / RFU, FOXP1 / Fold change vs veh, FOXP1 / RFU, CARD8 / Fold change vs veh, CARD8 / RFU, STRN3 / Fold change vs veh, STRN3 / RFU, ADK / Fold change vs veh, ADK / RFU, RASSF2 / Fold change vs veh, RASSF2 / RFU, WIPF1 / Fold change vs veh, WIPF1 / RFU, LARP1B / Fold change vs veh, LARP1B / RFU, RASA1 / Fold change vs veh, RASA1 / RFU, RB1 / Fold change vs veh, RB1 / RFU, PPFIA1 / Fold change vs veh, PPFIA1 / RFU, MAT2A / Fold change vs veh, MAT2A / RFU, CCT5 / Fold change vs veh, CCT5 / RFU, WDR92 / Fold change vs veh, WDR92 / RFU, CUX1 / Fold change vs veh, CUX1 / RFU, TTC7A / Fold change vs veh, TTC7A / RFU, TMEM135 / Fold change vs veh, TMEM135 / RFU, DEPTOR / Fold change vs veh, DEPTOR / RFU, CPM / Fold change vs veh, CPM / RFU, DNAJB6 / Fold change vs veh, DNAJB6 / RFU, CACNA2D3 / Fold change vs veh, CACNA2D3 / RFU, DTX4 / Fold change vs veh, DTX4 / RFU, TFCP2 / Fold change vs veh, TFCP2 / RFU, GMCL1 /// GMCL1P1 / Fold change vs veh, GMCL1 /// GMCL1P1 / RFU, AEBP2 / Fold change vs veh, AEBP2 / RFU, SNHG1 /// SNORD22 /// SNORD25 /// SNORD26 /// SNORD27 /// SNORD28 /// SNORD29 /// SNORD31 / Fold change vs veh, SNHG1 /// SNORD22 /// SNORD25 /// SNORD26 /// SNORD27 /// SNORD28 /// SNORD29 /// SNORD31 / Fold change (Aza/veh), C12orf56 (ProbeSet 11735607_a_at) / Fold change (ACY-1035/veh), C12orf56 (ProbeSet 11735607_a_at) / Fold change (Aza/veh), FGFR1OP (ProbeSet 11751329_s_at) / Fold change (ACY-1035/veh), FGFR1OP (ProbeSet 11751329_s_at) / Fold change (Aza/veh), VPS36 (ProbeSet 11739960_a_at) / Fold change (ACY-1035/veh), VPS36 (ProbeSet 11739960_a_at) / RFU SYPL1 (11715823_x_at) / Fold change /veh SYPL1 (11715823_x_at) / RFU IGFBP7 (11715501_s_at) / Fold change /veh IGFBP7 (11715501_s_at) / RFU REEP3 (11722064_at) / Fold change /veh REEP3 (11722064_at) / RFU IGLL1 (11728026_x_at) / Fold change /veh IGLL1 (11728026_x_at): dose or concentration left out as unconfirmed
Settings: ProbeSet 11720566_at; LIST D

SMILES: Nc1ccc(-c2cccs2)cc1NC(=O)c1ccc2c(c1)cc(C1CC1)n2CCN1CCOCC1 [ACY-1035]
- Fold change vs veh, BCAT1: 0.85
